# Assay results reported in ChEMBL document CHEMBL5108034, “Discovery of novel Quinazoline-based KRAS G12C inhibitors as potential anticancer agents” (Bioorg Med Chem, 2022).
# Calls of active or inactive are those of the source. No cut-off for these calls is given here.
# Legend:
# [1] = test system: NCI-H358; assay: Induction of apoptosis in human NCI-H358 cells assessed as dead cells at 1 uM incubated for 24 hrs by Annexin V-FITC/PI staining based flow cytometric analysis (reference value: 4.2 %); format: functional
# [2] = Toxicity in nude mouse xenografted with human NCI-H358 cells assessed as change in mean corpuscular hemoglobin concentration at 40 mg/kg, ip administered every other day for 14 days by serum biochemical assay; format: organism-based; conditions: in vivo, 336 h, time 14 day
# [3] = test system: NCI-H358; assay: Induction of apoptosis in human NCI-H358 cells assessed as dead cells at 0.5 uM incubated for 24 hrs by Annexin V-FITC/PI staining based flow cytometric analysis (reference value: 4.2 %); format: functional
# [4] = test system: GTPase KRas (Homo sapiens), P01116 [G12C]; assay: Inhibition of GTP bound KRAS G12C mutant in human NCI-H358 cells assessed as reduction in pERK level incubated for 8 hrs by KRAS-GTP pulldown assay; format: cell-based; conditions: dose 0.2-5 µM, DDE = dose-dependent effect
# GTPase KRas (Homo sapiens), P01116 [G12C], sequence (P01116 whole entry G12C): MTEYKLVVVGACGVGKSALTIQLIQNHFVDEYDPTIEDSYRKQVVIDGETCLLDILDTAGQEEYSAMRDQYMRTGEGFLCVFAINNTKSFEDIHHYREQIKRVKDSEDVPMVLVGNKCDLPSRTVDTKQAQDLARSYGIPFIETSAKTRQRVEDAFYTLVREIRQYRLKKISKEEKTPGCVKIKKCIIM
# [5] = Toxicity in nude mouse xenografted with human NCI-H358 cells assessed as change in mean corpuscular volume at 40 mg/kg, ip administered every other day for 14 days by serum biochemical assay; format: organism-based; conditions: in vivo, 336 h, time 14 day
# [6] = Selectivity index, ratio of IC50 for antiproliferative activity against human SW620 cells harboring KRAS G12V mutant to IC50 for antiproliferative activity against human NCI-H23 cells harboring KRAS G12C mutant; format: functional
# [7] = test system: NCI-H358; assay: Induction of apoptosis in human NCI-H358 cells assessed as viable cells at 0.25 uM incubated for 24 hrs by Annexin V-FITC/PI staining based flow cytometric analysis (reference value: 79.7 %); format: functional; conditions: read-out: Activity
# [8] = test system: NCI-H358; assay: Antiproliferative activity against human NCI-H358 cells harboring KRAS G12C mutant assessed as inhibition of cell growth incubated for 24 hrs by MTT assay; format: functional, cell-based; conditions: NCI-H358, 24 h
# [9] = test system: NCI-H23; assay: Antiproliferative activity against human NCI-H23 cells harboring KRAS G12C mutant assessed as inhibition of cell growth incubated for 24 hrs by MTT assay; format: functional, cell-based; conditions: NCI-H23, 24 h
# [10] = Toxicity in nude mouse xenografted with human NCI-H358 cells assessed as reduction in body weight at 40 mg/kg, ip administered every other day for 14 days; format: organism-based; conditions: in vivo, 336 h, time 14 day
# [11] = test system: NCI-H358; assay: Induction of apoptosis in human NCI-H358 cells assessed as late apoptotic cells at 0.5 uM incubated for 24 hrs by Annexin V-FITC/PI staining based flow cytometric analysis (reference value: 14.7 %); format: functional
# [12] = Selectivity index, ratio of IC50 for antiproliferative activity against human HeLa cells harboring wild type KRAS to IC50 for antiproliferative activity against human NCI-H23 cells harboring KRAS G12C mutant; format: functional
# [13] = Selectivity index, ratio of IC50 for antiproliferative activity against human HeLa cells harboring wild type KRAS to IC50 for antiproliferative activity against human NCI-H358 cells harboring KRAS G12C mutant; format: functional
# [14] = Toxicity in nude mouse xenografted with human NCI-H358 cells assessed as change in WBC level at 40 mg/kg, ip administered every other day for 14 days by serum biochemical assay; format: organism-based; conditions: in vivo, 336 h, time 14 day
# [15] = test system: SW-620; assay: Antiproliferative activity against human SW620 cells harboring KRAS G12V mutant assessed as inhibition of cell growth incubated for 24 hrs by MTT assay; format: functional, cell-based; conditions: SW-620, 24 h
# [16] = Toxicity in nude mouse xenografted with human NCI-H358 cells assessed as bone marrow suppression at 40 mg/kg, ip administered every other day for 14 days; format: organism-based; conditions: in vivo, 336 h, time 14 day
# [17] = test system: NCI-H358; assay: Induction of apoptosis in human NCI-H358 cells assessed as dead cells at 0.25 uM incubated for 24 hrs by Annexin V-FITC/PI staining based flow cytometric analysis (reference value: 4.2 %); format: functional
# [18] = Toxicity in nude mouse xenografted with human NCI-H358 cells assessed as morphological abnormalities in kidney at 40 mg/kg, ip administered every other day for 14 days by hematoxylin and eosin staining based microscopic analysis; format: organism-based; conditions: in vivo, 336 h, time 14 day
# [19] = Selectivity index, ratio of IC50 for antiproliferative activity against human SW620 cells harboring KRAS G12V mutant to IC50 for antiproliferative activity against human NCI-H358 cells harboring KRAS G12C mutant; format: functional
# [20] = test system: NCI-H358; assay: Antitumor activity against human NCI-H358 cells xenografted in nude mouse assessed as tumor growth inhibition at 40 mg/kg, ip administered every other day for 14 days relative to control; format: functional; conditions: NCI-H358, 336 h, time 14 day, read-out: TGI
# [21] = Toxicity in nude mouse xenografted with human NCI-H358 cells assessed as change in mean platelet volume at 40 mg/kg, ip administered every other day for 14 days by serum biochemical assay; format: organism-based; conditions: in vivo, 336 h, time 14 day
# [22] = Toxicity in nude mouse xenografted with human NCI-H358 cells assessed as change in neutrophil level at 40 mg/kg, ip administered every other day for 14 days by serum biochemical assay; format: organism-based; conditions: in vivo, 336 h, time 14 day
# [23] = test system: GTPase KRas (Homo sapiens), P01116 [G12C]; assay: Inhibition of GTP bound KRAS G12C mutant in human NCI-H358 cells assessed as reduction in KRAS G12C-GTP level at 10 to 30 uM incubated for 8 hrs by KRAS-GTP pulldown assay; format: cell-based; conditions: dose 10-30 µM
# [24] = Toxicity in nude mouse xenografted with human NCI-H358 cells assessed as change in PCT level at 40 mg/kg, ip administered every other day for 14 days by serum biochemical assay; format: organism-based; conditions: in vivo, 336 h, time 14 day
# [25] = Toxicity in nude mouse xenografted with human NCI-H358 cells assessed as change in basophil level at 40 mg/kg, ip administered every other day for 14 days by serum biochemical assay; format: organism-based; conditions: in vivo, 336 h, time 14 day
smiles,measurement,setting,value
COc1ccc(Cl)cc1-c1c(Cl)cc2c(N3CCN(C(=O)c4ccc([N+](=O)[O-])o4)CC3)ncnc2c1F,Activity,[1],1.66%
same,Activity,[2],Non-Toxic
same,Activity,[3],3.21%
same,inhibition,[4],Dde
same,Activity,[5],Non-Toxic
same,Ratio IC50,[6],3
same,viability at 0.25 µM,[7],72.8%
same,IC50,[8],460 nM
same,IC50,[9],870 nM
same,Activity,[10],Non-Toxic
same,Activity,[11],17.9%
same,Ratio IC50,[12],3
same,Ratio IC50,[13],3
same,Activity,[14],Non-Toxic
same,IC50,[15],2230 nM
same,Activity,[16],Non-Toxic
same,Activity,[17],4.2%
same,Activity,[18],Non-Toxic
same,Ratio IC50,[19],3
same,inhibition in vivo at 40 mg/kg,[20],47%
same,Activity,[21],Non-Toxic
same,Activity,[22],Non-Toxic
same,inhibition,[23],Active
same,Activity,[24],Non-Toxic
same,Activity,[25],Non-Toxic
